Assays:
[1] = molecular target: Proto-oncogene tyrosine-protein kinase Src (Homo sapiens, UniProt P12931); test: Inhibition of c-SRC (unknown origin) in presence of ATP
[2] = Inhibition of VEGFR2 (unknown origin) expressed in mouse NIH/3T3 cells assessed as reduction in aFGF and heparin-induced autophosphorylation incubated for 5 mins before stimulation for 5 mins with aFGF and heparin by SDS-PAGE and immunoblot method; type: cell-based; details: NIH3T3
[3] = Toxicity in bFGF-induced Swiss Webster mouse angiogenesis model at 1 mg/kg, ip starting 3 days prior to or on the day of pellet implantation and then daily until day 5 post-implantation by Corneal neovascularization assay; type: organism-based; details: in vivo, 192 h, time 8 day
[4] = molecular target: Fibroblast growth factor receptor 1 (Mus musculus, UniProt P16092); test: Inhibition of FGFR1 autophosphorylation in mouse NIH/3T3 cells assessed as reduction in aFGF and heparin-induced autophosphorylation incubated for 5 mins before stimulation for 5 mins with aFGF and heparin by SDS-PAGE and immunoblot method; type: cell-based
Chain of Fibroblast growth factor receptor 1 (P16092 whole entry): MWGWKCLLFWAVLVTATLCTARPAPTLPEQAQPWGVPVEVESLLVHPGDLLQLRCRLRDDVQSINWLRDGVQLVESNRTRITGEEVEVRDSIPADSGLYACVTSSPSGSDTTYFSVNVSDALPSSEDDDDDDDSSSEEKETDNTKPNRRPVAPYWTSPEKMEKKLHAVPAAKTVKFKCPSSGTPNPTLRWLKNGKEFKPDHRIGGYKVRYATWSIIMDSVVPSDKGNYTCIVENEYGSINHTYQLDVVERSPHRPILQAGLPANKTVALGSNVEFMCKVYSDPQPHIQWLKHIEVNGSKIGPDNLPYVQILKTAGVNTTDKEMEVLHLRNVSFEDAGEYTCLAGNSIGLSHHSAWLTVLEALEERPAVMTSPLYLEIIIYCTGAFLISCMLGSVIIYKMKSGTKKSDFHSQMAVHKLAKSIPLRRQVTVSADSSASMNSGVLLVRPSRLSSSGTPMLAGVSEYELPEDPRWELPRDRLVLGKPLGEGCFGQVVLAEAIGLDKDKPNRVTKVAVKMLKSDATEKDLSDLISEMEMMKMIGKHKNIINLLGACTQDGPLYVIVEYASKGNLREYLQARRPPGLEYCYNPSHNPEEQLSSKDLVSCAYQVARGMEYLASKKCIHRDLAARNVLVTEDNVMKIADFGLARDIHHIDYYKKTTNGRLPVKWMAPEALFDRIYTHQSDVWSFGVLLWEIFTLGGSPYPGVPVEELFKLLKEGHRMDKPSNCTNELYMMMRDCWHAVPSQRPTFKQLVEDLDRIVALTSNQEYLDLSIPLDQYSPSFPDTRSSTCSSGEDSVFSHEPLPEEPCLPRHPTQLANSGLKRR

[5] = molecular target: Dual specificity mitogen-activated protein kinase kinase; MEK1/2 (Homo sapiens, UniProt P36507+Q02750); test: Inhibition of MEK (unknown origin) in presence of ATP; type: protein assay
[6] = Inhibition of PDGFR cytoplasmic domain (unknown origin) in presence of ATP; design: species or system Homo sapiens
Mus musculus [7] = test: Inhibition of VEGF-induced neovascularization in Swiss Webster mouse angiogenesis model at 2 mg/kg, ip starting 3 days prior to or on the day of pellet implantation and then daily until day 5 post-implantation by Corneal neovascularization assay; type: functional; details: 192 h, time 8 day
[8] = Inhibition of PKCalpha/beta/gamma isotype mixtures (unknown origin) in presence of ATP; design: species or system Homo sapiens
Mus musculus [9] = test: Inhibition of FGF-induced neovascularization in Swiss Webster mouse angiogenesis model at 1 mg/kg, ip starting 3 days prior to or on the day of pellet implantation and then daily until day 5 post-implantation by Corneal neovascularization assay; type: functional; details: 192 h, time 8 day

Chain of Proto-oncogene tyrosine-protein kinase Src (P12931 2-536 limits assumed): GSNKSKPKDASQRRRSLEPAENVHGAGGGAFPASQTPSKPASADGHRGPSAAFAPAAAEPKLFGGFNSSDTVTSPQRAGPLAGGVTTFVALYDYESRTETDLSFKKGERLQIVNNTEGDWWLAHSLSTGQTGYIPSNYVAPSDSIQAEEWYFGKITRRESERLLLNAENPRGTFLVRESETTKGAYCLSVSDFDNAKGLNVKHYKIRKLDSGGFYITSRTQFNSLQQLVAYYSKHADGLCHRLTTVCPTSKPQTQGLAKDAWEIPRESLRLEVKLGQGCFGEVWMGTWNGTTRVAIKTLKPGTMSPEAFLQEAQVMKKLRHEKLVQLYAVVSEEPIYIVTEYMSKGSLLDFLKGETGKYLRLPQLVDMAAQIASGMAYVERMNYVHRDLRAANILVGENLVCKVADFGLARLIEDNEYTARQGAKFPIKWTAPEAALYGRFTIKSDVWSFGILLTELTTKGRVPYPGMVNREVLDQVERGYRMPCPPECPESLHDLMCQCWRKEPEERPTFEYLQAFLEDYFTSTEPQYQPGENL

- IC50 [1]: 19.8 µM
- IC50 [2]: 0.1 µM
- IC50 [4]: 0.001 µM
- IC50 [5]: > 50 µM
- IC50 [6]: 17.6 µM
- IC50 [8]: > 50 µM
SMILES: CCN(CC)CCCCNc1ncc2cc(-c3cc(OC)cc(OC)c3)c(NC(=O)NC(C)(C)C)nc2n1 [PD-173074]
- Activity [3]: Non-Toxic
- inhibition in vivo at 2 mg/kg (Mus musculus [7]): 81%
- inhibition in vivo at 1 mg/kg (Mus musculus [9]): 86%
